# Target: TcTryS (Trypanosoma cruzi trypanothione synthetase) (Trypanosoma cruzi, UniProt Q9GT49)
# Experiment: biochemical
# Assay type: biochemical
# Details: not given
# TcTryS (Trypanosoma cruzi trypanothione synthetase), sequence (Q9GT49 whole entry): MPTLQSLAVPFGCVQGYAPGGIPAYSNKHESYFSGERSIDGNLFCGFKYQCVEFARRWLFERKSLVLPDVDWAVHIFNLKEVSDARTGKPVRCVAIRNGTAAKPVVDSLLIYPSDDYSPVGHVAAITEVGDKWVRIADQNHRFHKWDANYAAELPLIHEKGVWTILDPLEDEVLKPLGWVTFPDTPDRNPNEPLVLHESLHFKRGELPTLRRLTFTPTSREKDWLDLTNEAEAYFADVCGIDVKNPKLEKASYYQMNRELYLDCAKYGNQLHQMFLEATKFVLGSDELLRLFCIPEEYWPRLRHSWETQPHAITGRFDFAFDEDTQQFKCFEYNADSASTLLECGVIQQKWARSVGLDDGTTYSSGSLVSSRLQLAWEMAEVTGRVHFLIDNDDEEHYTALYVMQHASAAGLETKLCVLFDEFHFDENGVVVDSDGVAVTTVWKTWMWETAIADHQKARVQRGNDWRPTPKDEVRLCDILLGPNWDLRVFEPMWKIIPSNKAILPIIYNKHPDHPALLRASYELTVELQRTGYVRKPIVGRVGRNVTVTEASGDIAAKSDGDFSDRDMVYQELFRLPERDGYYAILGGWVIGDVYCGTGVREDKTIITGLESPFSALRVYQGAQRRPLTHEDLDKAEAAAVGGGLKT
SMILES,% TcTryS inhibition ± 2σn-1,TcTryS Activity ± 2σn-1 (%)
Clc1ccc(CNCCCCCCCCCCCCNCc2ccc(Cl)cc2)cc1 [EAP1-67],23.8 ± 6.6%; (1.34),76.2 ± 6.6; 4 (1.34) %
COc1cc(CNCCCCCCNCc2ccc(O)c(OC)c2)ccc1O [APC1-121],–,92.9 ± 5.0; 4%
Cc1ccc(CNCCCCCCCCNCc2ccc(C)cc2)cc1 [EAP1-45],–,92.3 ± 4.5; 4%
Fc1ccc(CNCCCCCCCCCCCCNCc2ccc(F)cc2)cc1 [EAP1-69],~ 50%,56.3 ± 3.6; 3%
COc1ccc(C2C(C(=O)c3ccc4c(c3)OCCO4)=C(O)C(=O)N2c2nc3ccc(C)cc3s2)cc1OC (stereo not shown) [ADMRC153],–,109.3 ± 4.7; 4%
c1ccc(CNCCCCCCCCCCNCc2ccccc2)cc1 [APC1-113],–,88.5 ± 6.6; 3%
COc1cc(CNCCCCCCCCNCc2ccc(O)c(OC)c2)ccc1O [APC1-122],–,94.5 ± 7.0; 4%
O=C(C1=C(O)C(=O)N(c2nc3ccccc3s2)C1c1ccc(F)cc1)c1ccc2c(c1)OCCO2 (stereo not shown) [ADPKN161],–,90.8 ± 5.8; 4%
[O-][n+]1onc2cc(C(F)(F)F)ccc21 [Compound J25],–,81.8 ± 2.2; 3%
CC(C)c1ccc(CNCCCCCCCCNCc2ccc(C(C)C)cc2)cc1 [EAP1-37],–,65.6 ± 5.3; 4 (1.46) %
Brc1ccc(CNCCCCCCCCCCNCc2ccc(Br)cc2)cc1 [EAP1-57],–,81.2 ± 4.2; 3%
Cc1ccc2nc(N3C(=O)C(O)=C(C(=O)c4ccc5c(c4)OCCO5)C3c3ccc(O)cc3)sc2c1 (stereo not shown) [AD82],–,103.4 ± 6.4; 2%
COc1ccc(C2C(C(=O)c3ccc4c(c3)OCCO4)=C(O)C(=O)N2c2nc3ccc(Cl)cc3s2)cc1 (stereo not shown) [AD84],–,98.7 ± 5.1; 4%
COc1ccc(C(=O)C2=C(O)C(=O)N(c3nc4ccc(Cl)cc4s3)C2c2ccc(F)cc2)cc1OC (stereo not shown) [ADPKN164],–,99.6 ± 5.7; 4%
O=[N+]([O-])c1ccc2c(c1)no[n+]2[O-] [Compound J16],–,76.5 ± 1.0; 3%

# Same assay, conditions: read-out: % TcTryS inhibition ± 2σn-1
row,SMILES,inhibition at 30 µM
1,c1ccc(COc2ccc(CNCCCCNCc3ccc(OCc4ccccc4)cc3)cc2)cc1 [APC1-87],26.6 ± 4.1%
2,CCNC(=S)Nc1nc2nc(N)ncc2cc1-c1ccc2c(c1)OCO2 [ZEA41],50%

# Same assay, conditions: read-out: TcTryS Activity ± 2σn-1 (%)
row,SMILES,remaining activity at 30 µM
1,c1ccc(COc2ccc(CNCCCCNCc3ccc(OCc4ccccc4)cc3)cc2)cc1 [APC1-87],73.4%
2,O=C(C1=C(O)C(=O)N(c2nc3ccccc3s2)C1c1ccc(F)cc1)c1ccc2c(c1)OCCO2 (stereo not shown) [ADPKN161],90.8 ± 5.8%
3,COc1ccc(C2C(C(=O)c3ccc4c(c3)OCCO4)=C(O)C(=O)N2c2nc3ccc(Cl)cc3s2)cc1 (stereo not shown) [AD84],98.7 ± 5.1%
4,COc1ccc(C(=O)C2=C(O)C(=O)N(c3nc4ccc(Cl)cc4s3)C2c2ccc(F)cc2)cc1OC (stereo not shown) [ADPKN164],99.6 ± 5.7%

# Target: LiTryS (Leishmania infantum trypanothione synthetase) (Leishmania infantum, UniProt A4I2Z3)
# Sequence (A4I2Z3 1-652): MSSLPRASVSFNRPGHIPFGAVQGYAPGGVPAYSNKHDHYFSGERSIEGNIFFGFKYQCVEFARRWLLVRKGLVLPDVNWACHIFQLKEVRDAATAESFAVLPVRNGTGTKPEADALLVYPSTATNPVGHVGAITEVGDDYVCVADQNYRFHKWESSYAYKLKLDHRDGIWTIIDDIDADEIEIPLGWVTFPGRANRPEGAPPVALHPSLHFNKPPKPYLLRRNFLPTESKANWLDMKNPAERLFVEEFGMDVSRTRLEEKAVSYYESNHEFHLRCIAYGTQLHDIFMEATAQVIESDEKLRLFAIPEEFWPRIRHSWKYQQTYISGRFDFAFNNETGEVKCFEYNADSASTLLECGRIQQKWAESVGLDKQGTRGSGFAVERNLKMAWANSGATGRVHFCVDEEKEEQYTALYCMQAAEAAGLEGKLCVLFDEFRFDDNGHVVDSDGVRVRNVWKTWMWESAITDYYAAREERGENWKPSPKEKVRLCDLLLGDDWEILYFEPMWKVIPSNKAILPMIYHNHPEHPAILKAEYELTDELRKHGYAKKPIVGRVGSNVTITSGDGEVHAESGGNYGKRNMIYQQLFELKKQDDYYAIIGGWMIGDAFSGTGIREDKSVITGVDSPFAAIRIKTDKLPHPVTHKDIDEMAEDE
# Experiment: biochemical
# Assay type: biochemical
# Details: not given
row,SMILES,LiTryS Activity ± 2σn-1 (%)
1,COc1cc(CNCCCCCCNCc2ccc(O)c(OC)c2)ccc1O [APC1-121],95.0 ± 7.8; 4%
2,Cc1ccc(CNCCCCCCCCNCc2ccc(C)cc2)cc1 [EAP1-45],91.9 ± 2.7; 3%
3,Fc1ccc(CNCCCCCCCCCCCCNCc2ccc(F)cc2)cc1 [EAP1-69],63.2 ± 5.0; 4%
4,COc1ccc(C2C(C(=O)c3ccc4c(c3)OCCO4)=C(O)C(=O)N2c2nc3ccc(C)cc3s2)cc1OC (stereo not shown) [ADMRC153],87.6 ± 6.0; 4%
5,c1ccc(CNCCCCCCCCCCNCc2ccccc2)cc1 [APC1-113],86.9 ± 6.3; 3%
6,COc1cc(CNCCCCCCCCNCc2ccc(O)c(OC)c2)ccc1O [APC1-122],102.8 ± 8.6; 3%
7,[O-][n+]1onc2cc(C(F)(F)F)ccc21 [Compound J25],110.7 ± 2.4; 3%
8,CC(C)c1ccc(CNCCCCCCCCNCc2ccc(C(C)C)cc2)cc1 [EAP1-37],77.4 ± 7.9; 9 (1.284) %
9,Brc1ccc(CNCCCCCCCCCCNCc2ccc(Br)cc2)cc1 [EAP1-57],75.2 ± 4.5; 3%
10,Cc1ccc2nc(N3C(=O)C(O)=C(C(=O)c4ccc5c(c4)OCCO5)C3c3ccc(O)cc3)sc2c1 (stereo not shown) [AD82],86.2 ± 5.8; 4%
11,O=[N+]([O-])c1ccc2c(c1)no[n+]2[O-] [Compound J16],80.1 ± 9.2; 4%

# Same assay, conditions: read-out: % LiTryS inhibition ± 2σn-1
row,SMILES,inhibition at 30 µM
1,CCNC(=S)Nc1nc2nc(N)ncc2cc1-c1ccc2c(c1)OCO2 [ZEA41],13.6 ± 3.4%
2,COc1ccc(C(=O)C2=C(O)C(=O)N(c3nc4ccc(Cl)cc4s3)C2c2ccc(F)cc2)cc1OC (stereo not shown) [ADPKN164],~35%

# Same assay, conditions: read-out: LiTryS Activity ± 2σn-1 (%)
row,SMILES,activity at 30 µM
1,O=C(C1=C(O)C(=O)N(c2nc3ccccc3s2)C1c1ccc(F)cc1)c1ccc2c(c1)OCCO2 (stereo not shown) [ADPKN161],83.5 ± 9.2%
2,CCNC(=S)Nc1nc2nc(N)ncc2cc1-c1ccc2c(c1)OCO2 [ZEA41],86.4%
3,COc1ccc(C2C(C(=O)c3ccc4c(c3)OCCO4)=C(O)C(=O)N2c2nc3ccc(Cl)cc3s2)cc1 (stereo not shown) [AD84],82.1 ± 4%
4,COc1ccc(C(=O)C2=C(O)C(=O)N(c3nc4ccc(Cl)cc4s3)C2c2ccc(F)cc2)cc1OC (stereo not shown) [ADPKN164],66 ± 3.4%

# Same assay, conditions: read-out: LiTryS IC50 (estimated)
row,SMILES,IC50
1,Clc1ccc(CNCCCCCCCCCCCCNCc2ccc(Cl)cc2)cc1 [EAP1-67],~30 µM
2,c1ccc(COc2ccc(CNCCCCNCc3ccc(OCc4ccccc4)cc3)cc2)cc1 [APC1-87],~30 µM

# Target: TbTryS (Trypanosoma brucei trypanothione synthetase) (Trypanosoma brucei brucei, UniProt Q8IEX1)
# Sequence (Q8IEX1 1-627): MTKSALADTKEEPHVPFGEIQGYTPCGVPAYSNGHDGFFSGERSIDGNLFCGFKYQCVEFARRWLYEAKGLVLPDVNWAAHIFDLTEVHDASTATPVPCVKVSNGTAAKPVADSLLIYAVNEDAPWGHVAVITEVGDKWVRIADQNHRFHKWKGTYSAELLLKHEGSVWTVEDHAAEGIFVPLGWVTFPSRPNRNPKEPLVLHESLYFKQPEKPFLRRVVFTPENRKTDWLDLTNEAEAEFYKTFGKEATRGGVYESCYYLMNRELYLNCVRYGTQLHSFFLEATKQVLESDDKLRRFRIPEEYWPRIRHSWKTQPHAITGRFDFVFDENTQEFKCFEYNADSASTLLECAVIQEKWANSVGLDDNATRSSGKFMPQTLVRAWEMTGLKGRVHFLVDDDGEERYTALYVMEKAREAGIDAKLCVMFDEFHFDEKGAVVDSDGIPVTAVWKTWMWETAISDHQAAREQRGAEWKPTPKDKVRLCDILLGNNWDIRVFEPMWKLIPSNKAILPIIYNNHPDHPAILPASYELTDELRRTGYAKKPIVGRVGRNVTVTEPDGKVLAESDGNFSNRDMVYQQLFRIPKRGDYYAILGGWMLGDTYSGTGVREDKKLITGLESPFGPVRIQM
# Experiment: biochemical
# Details: not given
SMILES,% TbTryS inhibition ± 2σn-1,TbTryS Activity ± 2σn-1 (%)
Clc1ccc(CNCCCCCCCCCCCCNCc2ccc(Cl)cc2)cc1 [EAP1-67],42.4 ± 1.6%; (1.33),57.6 ± 1.6; 4 (1.33) %
COc1cc(CNCCCCCCNCc2ccc(O)c(OC)c2)ccc1O [APC1-121],–,91.1 ± 4.8; 3%
Cc1ccc(CNCCCCCCCCNCc2ccc(C)cc2)cc1 [EAP1-45],–,78.4 ± 0.6; 3%
Fc1ccc(CNCCCCCCCCCCCCNCc2ccc(F)cc2)cc1 [EAP1-69],–,81.4 ± 5.6; 4 (1.39) %
COc1ccc(C2C(C(=O)c3ccc4c(c3)OCCO4)=C(O)C(=O)N2c2nc3ccc(C)cc3s2)cc1OC (stereo not shown) [ADMRC153],–,103.3 ± 3.2; 3%
c1ccc(CNCCCCCCCCCCNCc2ccccc2)cc1 [APC1-113],–,89.5 ± 3.6; 3%
COc1cc(CNCCCCCCCCNCc2ccc(O)c(OC)c2)ccc1O [APC1-122],–,91.6 ± 3.6; 3%
[O-][n+]1onc2cc(C(F)(F)F)ccc21 [Compound J25],–,98.4 ± 4.2; 3%
CC(C)c1ccc(CNCCCCCCCCNCc2ccc(C(C)C)cc2)cc1 [EAP1-37],–,56.8 ± 5.6; 3 (1.43) %
Brc1ccc(CNCCCCCCCCCCNCc2ccc(Br)cc2)cc1 [EAP1-57],–,62.6 ± 3.6; 3 (1.26) %
Cc1ccc2nc(N3C(=O)C(O)=C(C(=O)c4ccc5c(c4)OCCO5)C3c3ccc(O)cc3)sc2c1 (stereo not shown) [AD82],–,107.7 ± 6.4; 4%
O=[N+]([O-])c1ccc2c(c1)no[n+]2[O-] [Compound J16],–,92.6 ± 4.9; 3%

# Same assay, conditions: 30 µM
row,SMILES,TbTryS Activity ± 2σn-1 (%)
1,COc1ccc(C2C(C(=O)c3ccc4c(c3)OCCO4)=C(O)C(=O)N2c2nc3ccc(Cl)cc3s2)cc1 (stereo not shown) [AD84],119.0 ± 6.3; 8 (0.95) %
2,COc1ccc(C(=O)C2=C(O)C(=O)N(c3nc4ccc(Cl)cc4s3)C2c2ccc(F)cc2)cc1OC (stereo not shown) [ADPKN164],123.2 ± 7.0; 4 (0.83) %

# Same assay, conditions: read-out: % TbTryS inhibition ± 2σn-1
row,SMILES,inhibition at 30 µM
1,c1ccc(COc2ccc(CNCCCCNCc3ccc(OCc4ccccc4)cc3)cc2)cc1 [APC1-87],37.9 ± 4%
2,CCNC(=S)Nc1nc2nc(N)ncc2cc1-c1ccc2c(c1)OCO2 [ZEA41],20.9 ± 4.4%

# Same assay, conditions: read-out: TbTryS Activity ± 2σn-1 (%)
row,SMILES,activity at 30 µM
1,c1ccc(COc2ccc(CNCCCCNCc3ccc(OCc4ccccc4)cc3)cc2)cc1 [APC1-87],62.1%
2,O=C(C1=C(O)C(=O)N(c2nc3ccccc3s2)C1c1ccc(F)cc1)c1ccc2c(c1)OCCO2 (stereo not shown) [ADPKN161],127%
3,CCNC(=S)Nc1nc2nc(N)ncc2cc1-c1ccc2c(c1)OCO2 [ZEA41],79.1%
4,COc1ccc(C2C(C(=O)c3ccc4c(c3)OCCO4)=C(O)C(=O)N2c2nc3ccc(Cl)cc3s2)cc1 (stereo not shown) [AD84],119%
5,COc1ccc(C(=O)C2=C(O)C(=O)N(c3nc4ccc(Cl)cc4s3)C2c2ccc(F)cc2)cc1OC (stereo not shown) [ADPKN164],123%

# Source: PMC4829233, “Identification of Novel Chemical Scaffolds Inhibiting Trypanothione Synthetase from Pathogenic Trypanosomatids” (PLoS Neglected Tropical Diseases, 2016)
